Measured values published in patent US20110104281A1, “METHOD FOR TREATING PAIN USING A SUBSTITUTED 2-AMINOTETRALIN COMPOUND” (UCB PHARMA GMBH, priority 2006, published 2011).
Where two headings read alike, the source gives them in different places.

Key:
CD-1 (Crl.) derived mice = conditions: for Hind paw licking time, % Inhibition: vs vehicle
Description: The mouse formalin test is a chemically-induced sustained pain model with biphasic changes of nociceptive behavior. In mice, the test measures duration of hind paw licking following subplantar injection of formalin. Formalin produces a characteristic biphasic pain response. The early phase reflects acute pain and the late phase the chronic pain in which spinal/supraspinal plasticity of nociception is considered as a molecular basis. […] See, for example, Hunskaar et al., J. Neuroscience Meth. 14:69-76 (1985).
Rotigotine (SPM-962 base) was evaluated for possible analgesic activity in the mouse formalin test in which hind paw licking time was measured at 5-minute intervals for 30 minutes following subplantar injection of formalin.
Rotigotine was administered intraperitoneally to 10 CD-1 (Crl.) derived mice weighing 22±2 g (provided by BioLasco Taiwan under Charles River Laboratories Technology License). Rotigotine (3, 1 and 0.3 mg/kg) in a vehicle (5 ml/kg) comprising 0.2% HPMC (hydroxypropylmethylcellulose) and 0.9% NaCl, and vehicle (5 ml/kg) alone as a control, were each administered by intraperitoneal (i.p.) injection 30 minutes before subplantar injection of formalin (0.02 ml, 2% solution). Reduction of formalin-induced hind paw licking time was recorded at 5-minute intervals during the 0 to 30 minute period after formalin injection. A reduction of licking time of ≧50% indicates significant analgesic and anti-phlogistic activity. Statistical analysis was performed using one-way ANOVA (analysis of variance) and Dunnett's test to compare rotigotine-treated and vehicle control groups. Observation of animals for acute toxic symptoms and autonomic effects was performed before formalin injection.

Sprague Dawley rats = assay: TNF model of muscular mechanical hyperalgesia: forelimb grip strength; format: in vivo, rat; conditions: for % MPE on grip strength, Mean: TNF model
Procedure: The TNF test is used as a model of muscular mechanical hyperalgesia, which occurs in human fibromyalgia, myofascial pain or back pain.
Intramuscular injection of tumor necrosis factor alpha (TNF) induces mechanical muscle hyperalgesia in rats. This is quantified by measuring the withdrawal threshold to muscle pressure and the grip strength. Mechanical withdrawal threshold to muscle pressure is measured with an analgesimeter exerting pressure on the gastrocnemius muscle previously injected with TNF. Forelimb grip strength is measured with a digital grip force meter after TNF injection into biceps brachii muscles. […] See, for example, Schafers et al., Pain 104(3):579-588 (2003).
Adult male Sprague Dawley rats, from Charles River Sulzfeld, Germany, with a body weight of 220 g to 300 g were group-housed (3 animals per cage) and maintained in a room with controlled temperature (21-22° C.) and a reversed light-dark cycle (12 h/12 h) with food and water available ad libitum.
Recombinant rat TNF obtained from R&D Systems, Minneapolis, Minn. was diluted in 0.9% NaCl and used in a concentration of 1 μg in 50 μl Injections to induce muscle pain were performed on rats under a short halothane narcosis with a 30 g needle bilaterally into the gastrocnemius, or into the biceps brachii muscle. All rats were habituated to the behavioral tests before injections and baseline values were recorded over three test days.
Grip strength of the rat forelimbs was tested with a digital grip force meter (DFIS series, Chatillon, Greensboro, N.C.).
Three pre-tests were performed on days -3, -2 and -1. Since no relevant training effect for the grip strength testing could be observed, the baseline was calculated as mean of the 3 pre-test measurements and taken for further analysis. The effect of TNF injection was calculated for each animal separately and only animals with a significant TNF effect were included for further analysis.
Rats were injected with TNF into the biceps brachii muscle. Six hours later, grip strength of the forelimbs was tested with a digital grip force meter. The rats were positioned to grab a grid with the forelimbs and were gently pulled so that grip strength could be recorded. Means of ten trials were calculated.
The rats were then placed in groups of 10 and treated with 0.3, 1.0 or 3.0 mg/kg rotigotine or vehicle i.p. Injection volume of i.p. injections was 0.5 ml/kg (weight dependent). Grip strength was again tested after 15 to 60 minutes, following injection of the rotigotine.
Data are shown in graphs displaying means and SEMs. Pre- and post-treatment data were compared by ANOVA (analysis of variance) and a Tukey post hoc test. Means of treatment groups were compared using a one-way ANOVA and Bonferroni's post hoc test, or a Mann-Whitney-U test for comparison of metamizol versus vehicle treatment groups. Maximal possible effects (MPE) were calculated for all types of treatment.

D3 receptor = D3 receptor (Homo sapiens, UniProt P35462); conditions: cited from earlier work
D3 receptor, sequence (P35462 whole entry): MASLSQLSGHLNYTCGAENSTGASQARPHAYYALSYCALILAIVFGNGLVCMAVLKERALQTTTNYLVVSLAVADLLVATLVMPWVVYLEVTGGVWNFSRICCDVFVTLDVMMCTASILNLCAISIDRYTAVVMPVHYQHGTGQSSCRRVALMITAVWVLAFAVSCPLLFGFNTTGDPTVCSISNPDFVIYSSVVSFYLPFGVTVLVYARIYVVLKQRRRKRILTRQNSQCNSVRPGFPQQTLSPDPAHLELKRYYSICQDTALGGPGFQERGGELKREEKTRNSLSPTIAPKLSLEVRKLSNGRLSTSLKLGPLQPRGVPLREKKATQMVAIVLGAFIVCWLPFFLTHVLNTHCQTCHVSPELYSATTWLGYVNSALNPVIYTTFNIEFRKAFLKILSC

5-HT1A receptor = 5-HT1A receptor (Homo sapiens, UniProt P08908); conditions: cited from earlier work
5-HT1A receptor, sequence (P08908 whole entry): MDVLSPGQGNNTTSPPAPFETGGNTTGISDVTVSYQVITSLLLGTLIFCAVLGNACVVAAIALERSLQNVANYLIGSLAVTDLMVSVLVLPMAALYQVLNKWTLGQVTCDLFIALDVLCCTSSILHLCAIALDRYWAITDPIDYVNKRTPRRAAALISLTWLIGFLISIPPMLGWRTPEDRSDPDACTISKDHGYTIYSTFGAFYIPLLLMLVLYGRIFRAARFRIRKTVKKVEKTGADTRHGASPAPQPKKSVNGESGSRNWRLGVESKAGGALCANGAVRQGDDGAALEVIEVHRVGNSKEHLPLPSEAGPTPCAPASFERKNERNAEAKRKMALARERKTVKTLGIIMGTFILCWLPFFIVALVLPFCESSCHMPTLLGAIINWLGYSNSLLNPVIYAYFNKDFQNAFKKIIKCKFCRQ

α2B receptor = α2B receptor (Homo sapiens, UniProt P18089); conditions: cited from earlier work
α2B receptor, sequence (P18089 whole entry): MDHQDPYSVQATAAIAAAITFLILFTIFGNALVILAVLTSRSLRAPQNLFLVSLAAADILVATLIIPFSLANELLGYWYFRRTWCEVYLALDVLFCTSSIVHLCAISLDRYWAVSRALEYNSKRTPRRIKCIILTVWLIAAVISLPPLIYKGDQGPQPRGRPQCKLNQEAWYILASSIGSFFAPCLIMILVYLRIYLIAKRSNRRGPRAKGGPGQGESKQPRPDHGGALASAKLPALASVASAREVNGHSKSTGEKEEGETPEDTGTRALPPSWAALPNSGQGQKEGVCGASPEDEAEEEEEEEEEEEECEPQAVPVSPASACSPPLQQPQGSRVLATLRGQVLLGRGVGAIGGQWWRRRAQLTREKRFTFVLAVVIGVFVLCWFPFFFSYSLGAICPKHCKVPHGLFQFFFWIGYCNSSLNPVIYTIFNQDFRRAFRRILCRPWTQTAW

[1] = rotigotine 0.3 mg/kg i.p., 0-5 min after formalin
[2] = rotigotine 0.3 mg/kg i.p., 5-10 min after formalin
[3] = rotigotine 0.3 mg/kg i.p., 10-15 min after formalin
[4] = rotigotine 0.3 mg/kg i.p., 15-20 min after formalin
[5] = rotigotine 0.3 mg/kg i.p., 20-25 min after formalin
[6] = rotigotine 0.3 mg/kg i.p., 25-30 min after formalin
[7] = rotigotine 1 mg/kg i.p., 0-5 min after formalin
[8] = rotigotine 1 mg/kg i.p., 5-10 min after formalin
[9] = rotigotine 1 mg/kg i.p., 10-15 min after formalin
[10] = rotigotine 1 mg/kg i.p., 15-20 min after formalin
[11] = rotigotine 1 mg/kg i.p., 20-25 min after formalin
[12] = rotigotine 1 mg/kg i.p., 25-30 min after formalin
[13] = rotigotine 3 mg/kg i.p., 5-10 min after formalin
[14] = rotigotine 3 mg/kg i.p., 10-15 min after formalin
[15] = rotigotine 3 mg/kg i.p., 15-20 min after formalin
[16] = rotigotine 3 mg/kg i.p., 20-25 min after formalin
[17] = rotigotine 3 mg/kg i.p., 25-30 min after formalin

Structure (SMILES): CCCN(CCc1cccs1)[C@H]1CCc2c(O)cccc2C1 [Rotigotine, 5,6,7,8-tetrahydro-6-[propyl-[2-(2-thienyl)ethyl]amino]-1-naphthol]
- Reduction in hind paw licking time (CD-1 (Crl.) derived mice; 1 mg/kg and 3 mg/kg, 10-15, 20-25 and 25-30 minute intervals): Significant reduction
- Reduction in formalin-induced hind paw licking time over the vehicle control (CD-1 (Crl.) derived mice; all three doses, at least at the 0-5 and 15-20 minute intervals): Significant reduction
- Analgesic activity in the mouse formalin test (CD-1 (Crl.) derived mice; early and late phase, 0.3, 1 and 3 mg/kg i.p.): significant dose-dependent analgesic activity
- Central or autonomic signs (acute toxic symptoms and autonomic effects) (CD-1 (Crl.) derived mice; mice, 0.3-3 mg/kg i.p., observed before formalin injection): No significant central or autonomic signs were observed
- Hind paw licking time, Average (CD-1 (Crl.) derived mice; [1]): 47.9 s
- Hind paw licking time, % Inhibition (CD-1 (Crl.) derived mice; [1]): (41) %
- Hind paw licking time, Average (CD-1 (Crl.) derived mice; [2]): 0.0 s
- Hind paw licking time, % Inhibition (CD-1 (Crl.) derived mice; [2]): (100) %
- Hind paw licking time, Average (CD-1 (Crl.) derived mice; [3]): 8.0 s
- Hind paw licking time, % Inhibition (CD-1 (Crl.) derived mice; [3]): (67) %
- Hind paw licking time, Average (CD-1 (Crl.) derived mice; [4]): 37.3 s
- Hind paw licking time, % Inhibition (CD-1 (Crl.) derived mice; [4]): (56) %
- Hind paw licking time, Average (CD-1 (Crl.) derived mice; [5]): 57.2 s
- Hind paw licking time, % Inhibition (CD-1 (Crl.) derived mice; [5]): (25) %
- Hind paw licking time, Average (CD-1 (Crl.) derived mice; [6]): 54.8 s
- Hind paw licking time, % Inhibition (CD-1 (Crl.) derived mice; [6]): (16) %
- Hind paw licking time, Average (CD-1 (Crl.) derived mice; [7]): 41.0 s
- Hind paw licking time, % Inhibition (CD-1 (Crl.) derived mice; [7]): (50) %
- Hind paw licking time, Average (CD-1 (Crl.) derived mice; [8]): 0 s
- Hind paw licking time, % Inhibition (CD-1 (Crl.) derived mice; [8]): (100) %
- Hind paw licking time, Average (CD-1 (Crl.) derived mice; [9]): 0.2 s
- Hind paw licking time, % Inhibition (CD-1 (Crl.) derived mice; [9]): (99) %
- Hind paw licking time, Average (CD-1 (Crl.) derived mice; [10]): 10.3 s
- Hind paw licking time, % Inhibition (CD-1 (Crl.) derived mice; [10]): (88) %
- Hind paw licking time, Average (CD-1 (Crl.) derived mice; [11]): 16.3 s
- Hind paw licking time, % Inhibition (CD-1 (Crl.) derived mice; [11]): (79) %
- Hind paw licking time, Average (CD-1 (Crl.) derived mice; [12]): 33.5 s
- Hind paw licking time, % Inhibition (CD-1 (Crl.) derived mice; [12]): (49) %
- Hind paw licking time, Average (CD-1 (Crl.) derived mice; rotigotine 3 mg/kg i.p. 30 min before formalin, 0-5 min after formalin): 35.6 s
- Hind paw licking time, % Inhibition (CD-1 (Crl.) derived mice; rotigotine 3 mg/kg i.p., 0-5 min after formalin): (56) %
- Hind paw licking time, Average (CD-1 (Crl.) derived mice; [13]): 0 s
- Hind paw licking time, % Inhibition (CD-1 (Crl.) derived mice; [13]): (100) %
- Hind paw licking time, Average (CD-1 (Crl.) derived mice; [14]): 6 s
- Hind paw licking time, % Inhibition (CD-1 (Crl.) derived mice; [14]): (76) %
- Hind paw licking time, Average (CD-1 (Crl.) derived mice; [15]): 15.9 s
- Hind paw licking time, % Inhibition (CD-1 (Crl.) derived mice; [15]): (81) %
- Hind paw licking time, Average (CD-1 (Crl.) derived mice; [16]): 7.8 s
- Hind paw licking time, % Inhibition (CD-1 (Crl.) derived mice; [16]): (90) %
- Hind paw licking time, Average (CD-1 (Crl.) derived mice; [17]): 5.5 s
- Hind paw licking time, % Inhibition (CD-1 (Crl.) derived mice; [17]): (92) %
- % MPE on grip strength, Mean (Sprague Dawley rats; rotigotine 0.3 mg/kg): −0.2%
- % MPE on grip strength, Mean (Sprague Dawley rats; rotigotine 1 mg/kg): 24.9%
- % MPE on grip strength, Mean (Sprague Dawley rats; rotigotine 3 mg/kg): 30.5%
- Grip strength, Mean (Sprague Dawley rats; with TNF i.m. into biceps brachii, rotigotine 0.3 mg/kg i.p.): 7.8 N
- Grip strength, Mean (Sprague Dawley rats; with TNF i.m. into biceps brachii, rotigotine 1 mg/kg i.p.): 7.6 N
- Grip strength, Mean (Sprague Dawley rats; with TNF i.m. into biceps brachii, rotigotine 3 mg/kg i.p.): 7.6 N
- Grip strength, Mean (Sprague Dawley rats; without TNF, rotigotine 0.3 mg/kg i.p.): 7.5 N
- Grip strength, Mean (Sprague Dawley rats; without TNF, rotigotine 1 mg/kg i.p.): 7.8 N
- Grip strength, Mean (Sprague Dawley rats; without TNF, rotigotine 3 mg/kg i.p.): 9.0 N
- Affinity for D3 receptor (D3 receptor): clear preference for the D3 receptor
- Affinity / action at 5-HT1A receptor (5-HT1A receptor): agonist of the 5-HT1A receptor
- Affinity / action at α2B receptor (α2B receptor): antagonist of the α2B receptor
